The subject of experiment [1] is membrane attack complex (MAC, C5b-9). Put plainly: ELISA of lytic complex (MAC, C5b-9) in serum. The note with it: all dosis ranges studied (0.1-5% taurolidine); FIG. 7. Type of experiment: biochemical, human. As to the method: (§1) Complement anaphylatoxins C5a and C3a and the lytic complex (MAC, C5b-9) in the serum of healthy volunteers were determined quantitatively using commercially available ELISA (“enzyme-linked immunosorbent assay”) test systems. As described above, initially serum samples having various concentrations of taurolidine (0.1-5%, in parallel with samples containing Ringer solution in corresponding dilution ratios=controls) were incubated for 30 minutes at 37° C. The samples were then diluted according to the protocol of the manufacturer and pipetted into the wells of the microtiter plate. The subsequent incubation/washing steps were carried out according to the protocol of the manufacturer. […] The extinction was measured using an ELISA plate reader and the values were then converted to concentrations using the standard samples which had also been measured.

The test system of the next experiment is C5a. Put plainly: ELISA of complement anaphylatoxin C5a in serum. Type of experiment: biochemical, human. Here is the method: as §1
For a further experiment, the system named is complement system. Kind of experiment: CH50 assay (hemolysis of sensitized sheep erythrocytes by human serum). Type of experiment: biochemical. As to the method: Using the CH50 assay, it is possible to assess functionally the total activity of the complement system, especially the classic activation pathway. […] In accordance with the protocol, a dilution series (1:20-1:480) was prepared for each condition and washed sheep erythrocytes which had been preincubated with hemolysin reagent were then added. During subsequent incubation at 37° C. for exactly 1 hour the erythrocytes were lysed depending on the activity of the complement system. In each experiment, a negative control (no hemolysis), a sample with 50% hemolysis (CH50, by dilution with dist. water) and a sample with 100% hemolysis (CH100, by dilution with dist. water) were analyzed in each case. After a final centrifugation, in each case 1 ml of the supernatant of each sample was removed and the absorption at 541 nm was determined photometrically. The determined absorptions were finally plotted against the dilutions. The activity (or the ability to lyse) of the complement system under the respective conditions could be assessed by the shape of the curves (shift to the left=complement activation) and by determining the dilution at which 50% of the erythrocytes have been lysed.

The test system of a further experiment is C3a. Put plainly: ELISA of complement anaphylatoxin C3a in serum. Type of experiment: biochemical, human. As to the method: as §1
Where [2] appears, read: at 0.5% taurolidine (concentration maximum).

SMILES strings stand for the structures.

As to `O=S1(=O)CCN(CN2CCS(=O)(=O)NC2)CN1` [taurolidine, 4,4′-methylenebis-(1,2,4-thiadiazine-1,1-dioxide)], in experiment [1], the “serum concentration of the membrane attack complex (MAC)” value was “elevated significantly”. Besides, in the experiment with C5a (at 0.1% taurolidine (minimum)), the C5a result was “no or even a tendency of reduced”. Further, the “formation of C5a” value in the experiment with C5a (setting [2]) is “enhances the formation”. Besides, in the experiment with C5a (serum with taurolidine 0.1-5%, 30 min, 37° C., FIGS. 5-6), the “concentration of complement component C5a compared to untreated serum” value is “increased compared to untreated serum”. The “hemolytic activity (activity of the complement system)” value with complement system (human serum of healthy volunteers incubated with 0.1-1% taurolidine, 30 min, 37° C., FIGS. 1-3) was “significantly increases”. Further, in the experiment with complement system (incubation at 0-4° C., FIG. 2), the “complement activation (hemolytic activity), temperature dependence” value was “not at 0-4 °C”. In addition, the C3a result in the experiment on C3a (at 0.1% taurolidine (minimum)) was “no or even a tendency of reduced”. Besides, in the experiment on C3a (setting [2]), the “formation of C3a” value is reported as “enhances the formation”. The “concentration of complement component C3a compared to untreated serum” value in the experiment on C3a (serum with taurolidine 0.1-5%, 30 min, 37° C., FIG. 4) was “increased compared to untreated serum”.

These data come from patent US20060264422A1, “Use of taurolidine as enhancer of the complement system” (priority 2005, published 2006).
